According to paper PMC13130965, “An Integrated Approach Combining Regulatory Tests in tg(cyp19a1b:GFP) Zebrafish Embryos to Assess Toxicity, Developmental Effects, and Estrogenic Activity of Chemicals: A Case Study with Bisphenol A Substitutes” (Environmental Science & Technology, 2026):
Converted amounts (≈) assume the structure as drawn.

System: cyp19a1b:GFP (brain aromatase) in tg(cyp19a1b:GFP) zebrafish embryos
Test: EASZY assay (OECD TG 250): GFP induction
Format: in vivo, zebrafish (Danio rerio)
Settings: Danio rerio, 96 h
Description: The tests were conducted according to OECD TG 250. Newly fertilized cyp19a1b-GFP eggs were transferred to glass crystallizing dishes and exposed for 96 h in a humidified climate chamber (27 ± 2 °C) under semistatic conditions with a total renewal of the test solutions each day. Each condition consisted of three crystallizing dishes, each containing 7 embryos and 15 mL of test medium. Embryos were exposed to a range of nonlethal concentrations of chemicals as determined previously based on the refined FET assays. The tested concentration ranges of bisphenols, along with a control with the same percentage of solvent alone, are summarized in Table S2. All exposure concentrations are reported as nominal. At the end of exposure, transgenic zebrafish embryos were collected for fluorescence imaging to quantify GFP intensity. At the end of the experiments, all living zebrafish embryos were euthanized as described above. […] ICI was added together with bisphenols from 0 to 4 dpf (days post fertilization). […] In all coexposure experiments, the final DMSO concentration was 0.02% (v/v).
For fluorescence imaging, GFP fold induction was expressed as mean ± SEM, and values were compared to the DMSO control using one-way ANOVA followed by Dunnett’s posthoc test. […]

In the case of `CC(C)(c1ccc(O)cc1)c1ccc(O)cc1` [BPA, 4-[2-(4-hydroxyphenyl)propan-2-yl] phenol], the minimal effective concentration (read-out: EASZY LOEC (GFP induction), nominal) is reported as 0.625 µg/mL and the EC50 (read-out: EASZY relative EC50, nominal) is reported as 0.98 µg/mL (≈ 4.29 µM).
